Measured values as given in publication PMC9739371, “Deciphering the Binding of the Nuclear Localization Sequence of Myc Protein to the Nuclear Carrier Importin α3” (International Journal of Molecular Sciences, 2022).

Test: Translational diffusion NMR (DOSY)
Assay type: physicochemical
Conditions: 500 MHz, 10 °C, 1.8 mM peptide, 100 mM sodium phosphate pH 7.0, 100% D2O, 1% dioxane as reference
Method: The NMR spectra were acquired at 10 °C on a Bruker Avance 500 MHz spectrometer (Bruker GmbH, Karlsruhe, Germany), equipped with a triple resonance probe and z-pulse field gradients. Spectra were processed with Bruker TopSpin 2.1 (Bruker GmbH, Karlsruhe, Germany). […] Spectra were calibrated with 3-(trimethylsilyl) propionic acid-2,2,3,3-^2H4-sodium salt (TSP), by considering pH-dependent changes of its chemical shifts; the probe temperature was calibrated with pure methanol [49].
Measurements of the translational self-diffusion coefficient, D, were performed with the pulsed-gradient spin-echo sequence in the presence of 100% D2O. […] The gradient strength was varied in sixteen linear steps between 2% to 95% of the total power of the gradient coil. Gradient strength was calibrated by using the value of D for the residual proton water signal in a sample containing 100% D2O, in a 5-mm tube [51]. The length of the gradient was 2.5 ms; the time between two pulse gradients in the pulse sequence was 250 ms; and the recovery delay between the bipolar gradients was 100 µs. […] A final concentration of 1% of dioxane, which was assumed to have a hydrodynamic radius Rh = 2.12 Å [51], was added to the solution.

Question: For `C1COCCO1` [dioxane], which “translational diffusion coefficient D” value is on record?
Answer: 5.3 ± 0.6 × 10^−6 cm^2 s^−1
